Measured values reported in patent US7601868B2, “Amine derivative” (Takeda Pharmaceutical Company Limited, priority 2003, dated 2009).

Molecular target: T1, SLC-1 (Homo sapiens, UniProt Q99705)
T1 construct: expressed in transfected cells; host or cells: CHO cells (human SLC-1 clone 57 / rat SLC-1 clone 44), membrane fraction
Assay: Antagonistic activity using GTPγS binding assay (SLC-1 expression CHO cell membrane fraction, MCH-stimulated)
Type: biochemical, human/rat
Settings: [35S]-GTPγS binding to SLC-1 expression CHO cell membrane fraction in the presence of MCH, 25° C., 1 hr; read-out: Inhibitory activity (IC50: nM)
Method: Determination of Antagonistic Activity of Test Compound Using GTP γ S Binding Assay
Using human SLC-1 expression CHO cell clone 57 and rat SLC-1 expression CHO cell clone 44 described in WO01/82925, SLC-1 expression CHO cell membrane fractions were prepared by the following method. In phosphate buffered saline (pH 7.4) supplemented with 5 mM EDTA (ethylenediamine tetraacetic acid) were suspended human and rat SLC-1 expression CHO cells (1×10^8) and centrifuged. Homogenate buffer (10 ml, 10 mM NaHCO3, 5 mM EDTA, pH 7.5) was added to the pellets of the cells and, using Polytron Homogeniser, the mixture was homogenated. The supernatant obtained after centrifugation at 400×g for 15 min was further centrifuged at 100,000×g for 1 hr to give precipitate of the membrane fraction. […]
The antagonistic activity of the test compound was determined as follows. […] Liquid scintillator (50 ml) was added to the glass filter and the residual radioactivity was determined by a liquid scintillation counter. Binding inhibition (%)=(radioactivity upon addition of test compound and MCH−radioactivity upon addition of DMSO solution)/(radioactivity upon addition of MCH−radioactivity upon addition of DMSO solution)×100
From the binding inhibition (%), IC50 of the test compound was calculated.

T1 sequence (Q99705 whole entry, species assumed): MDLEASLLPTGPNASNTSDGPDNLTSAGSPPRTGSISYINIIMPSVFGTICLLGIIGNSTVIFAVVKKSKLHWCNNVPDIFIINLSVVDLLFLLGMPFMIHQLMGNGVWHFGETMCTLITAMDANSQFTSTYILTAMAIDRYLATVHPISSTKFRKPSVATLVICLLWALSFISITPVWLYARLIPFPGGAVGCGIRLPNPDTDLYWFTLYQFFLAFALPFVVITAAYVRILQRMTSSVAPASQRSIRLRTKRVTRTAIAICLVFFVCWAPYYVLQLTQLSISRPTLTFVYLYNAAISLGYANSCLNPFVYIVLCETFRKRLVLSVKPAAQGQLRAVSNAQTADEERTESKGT

CC(c1ccc(CCNC(=O)c2ccc(-c3ccc(Cl)cc3)cc2)cc1)N1CCCCCC1 (stereo not shown) [Example 67, N-(2-{4-[1-(1-azepanyl)ethyl]phenyl}ethyl)-4′-chloro[1,1′-biphenyl]-4-carboxamide]
IC50: 3 nM
